From patent US12636284B2, “Compositions for use in the prevention and/or treatment of intellectual disability and neurodegenerative diseases in a subject with down syndrome” (UNIVERSITA' DEGLI STUDI DI ROMA “LA SAPIENZA”, priority 2021, dated 2026)

Columns and labels:
Assay type in all cases: in vivo, mouse
[1] = system: MAPK44/42 and Akt pathway; assay: Western blot of Akt and MAPK44/42 activation in hippocampus
Method: (§1) For the duration of the treatment, the mice were weighed weekly in order to assess any weight changes. After 21 days of treatment, the animals underwent a behavioral test to assess their memory and learning abilities. After the behavioral test, metabolic parameters such as blood glucose (both fasting and under the glycemic curve), body surface area (BSA) and body mass index (BMI) were assessed. Finally, animals were sacrificed using cervical dislocation. The brain and peripheral areas were isolated and collected in liquid nitrogen and subsequently stored at −80° C. until they were used for biochemical analyzes.
(§2) Total protein extracts were prepared from the frontal cortex for human autopsy samples and from the hippocampus for mouse samples, using RIPA solution (pH 7.4) containing TrisHCl (50 mM, pH 7.4), NaCl (150 mM), 1% NP-40, 0.25% sodium deoxycholate, ethylenediamine tetracetic acid (EDTA) (1 mM), and 0.1% sodium dodecyl sulfate (SDS). […] For the rest of the experiments, protein extracts were supplemented with cocktails of protease and phosphatase inhibitors (Sigma Aldrich, St Louis, MO, USA). Brain tissues were homogenized in the solution described above by sonication, and centrifuged at 14,000 rpm for 30 min at 4° C. The supernatant was used to determine total protein concentration by means of the bicinchoninic acid assay (BCA, Pierce, Rockford, IL). […]

[2] = system: Ts2Cje mice; assay: Novel object recognition (NOR) cognitive test after intranasal treatment; conditions: Ts2Cje mice 9 months of age; sitagliptin 5 mM intra-nasally, 10 μL/nostril, once a day for 21 days
Description: Finally, animals were sacrificed using cervical dislocation. […] The Novel object recognition (NOR) test is a relatively fast and efficient means of testing different stages of learning and memory in mice. The test is based on a minimum of three sessions: a habituation session (Day 1), a training session (Day 2) and a test session (Day 3). Training simply involves visual exploration of two identical objects, while the test session involves replacing one of the previously explored objects with a new object. Since rodents have an innate preference for novelty, a rodent that remembers the familiar object will spend more time exploring the new object. […] In the habituation stage, each animal can freely explore the arena for 10 minutes (50 cm deep×30 cm wide×30 cm high) in the absence of objects. During the training stage, a single animal is placed in the arena containing two identical objects (two balls) for 10 min. In the testing stage, after 24 hours, the animal is brought back to the arena with two objects, one is the familiar object and the other is a new object (ball+lego). […] In the analysis stage, the discrimination index (DI) and preference index (PI) are evaluated. The discrimination index (DI) allows calculation of the animal's ability to discriminate between new (TN) and familiar (TF) objects [DI=(TN−TF)/(TN+TF)]. […]

[3] = system: GSK3b protein; assay: Western blot of GSK3b activation (pS9/pT216) in hippocampus; conditions: brains (hippocampus) of Ts2Cje mice
Method: as §1, §2

With N[C@@H](CC(=O)N1CCn2c(nnc2C(F)(F)F)C1)Cc1cc(F)c(F)cc1F [sitagliptin, (R)-4-oxo-4-[3-(trifluoromethyl)-5,6-dihydro[1,2,4]triazole[4,3-a]pyrazin-7(8H)-yl]-1-(2,4,5-trifluorophenyl)butan-2-amine] the “activation of the cerebral insulin signal, MAPK44/42” value ([1]; Western blot p(Thr202/Tyr204)-MAPK44/42) was “restoration of the activation”, the “activation of the cerebral insulin signal, Akt” value ([1]; Western blot p(ser473)-Akt) was “restoration of the activation” and the “cognitive performance, novel object recognition (NOR)” value [2] was “marked improvement in cognitive performance”. For the same compound, the “activation of the GSK3b protein” value [3] was “increased activation”.
